The conditions of data set [1]: crystalline powder; cited from earlier work.
The nature of data set [2]: Selection of sweeteners and flavoring agents (formulation trials). Conditions: used as sweetener in trientine tetrahydrochloride oral solution.

The text below walks through data of patent publication US20260027067A1, “TRIENTINE LIQUID DOSAGE FORMS” (BIOPHORE INDIA PHARMACEUTICALS PVT. LTD., priority 2022, published 2026).

Each structure is given as a SMILES string. Counter-ions that a name gives are not always drawn.

Take `NCCNCCNCCN` [Trientine dihydrochloride salt, Trientine dihydrochloride]: the hygroscopicity result in data set [1] is recorded as “hygroscopic”.

With `Cl.Cl.Cl.Cl.NCCNCCNCCN` [Trientine tetrahydrochloride salt, Trientine tetrahydrochloride], the hygroscopicity entry in data set [1] is given as “not hygroscopic”.

Take `O=C1NS(=O)(=O)c2ccccc21.[Na]` [saccharin sodium]: the “compatibility of the sweetener in the formulation” value in data set [2] is on record as “incompatibility in the form of milky white curdling”.
